Test results reported in patent publication US12686652B2, “Methods of increasing irrigation water and fertilizer delivery to soil using formic acid and formate salts, making a formate salt from carbon dioxide, and generating a carbon credit” (Deerpoint Group, Inc., priority 2023, dated 2026).
Like-named read-outs stand apart in the source and are kept apart here.

Conditions: for Solubility as percentage of the solubility of potassium formate in water: 68-86° F. (20-30° C.); for Solubility (g K2O/100 g H2O): water
Description: The table below lists the solubilities of various potassium fertilizers in water (as K2O) on a weight basis:

SMILES | Solubility as percentage of the solubility of potassium formate in water | Solubility (g K2O/100 g H2O) (32 ° F.) | Solubility (g K2O/100 g H2O) (68 ° F.) | Solubility (g K2O/100 g H2O) (86 ° F.)
O=S([O-])([O-])=S.[K+].[K+] [K2SSO3, potassium thiosulfate] | about 40% | 48 g K2O/100 g H2O | 77 g K2O/100 g H2O | 87 g K2O/100 g H2O
[Cl-].[K+] [KCl, potassium chloride] | about 12% | 18 g K2O/100 g H2O | 22 g K2O/100 g H2O | 24 g K2O/100 g H2O
